Measured values: article PMC10400579, “FDW028, a novel FUT8 inhibitor, impels lysosomal proteolysis of B7-H3 via chaperone-mediated autophagy pathway and exhibits potent efficacy against metastatic colorectal cancer” (Cell Death & Disease, 2023)

Legend:
[1] = molecular target: T1, Fucosyltransferase 8 (FUT8) (Homo sapiens, UniProt Q9BYC5); assay: streptavidin pulldown from SW480 lysate with […] probe, western blot and LC-MS/MS; format: cell-based
T1 construct: FUT8-Flag
T1 sequence (Q9BYC5 1-575): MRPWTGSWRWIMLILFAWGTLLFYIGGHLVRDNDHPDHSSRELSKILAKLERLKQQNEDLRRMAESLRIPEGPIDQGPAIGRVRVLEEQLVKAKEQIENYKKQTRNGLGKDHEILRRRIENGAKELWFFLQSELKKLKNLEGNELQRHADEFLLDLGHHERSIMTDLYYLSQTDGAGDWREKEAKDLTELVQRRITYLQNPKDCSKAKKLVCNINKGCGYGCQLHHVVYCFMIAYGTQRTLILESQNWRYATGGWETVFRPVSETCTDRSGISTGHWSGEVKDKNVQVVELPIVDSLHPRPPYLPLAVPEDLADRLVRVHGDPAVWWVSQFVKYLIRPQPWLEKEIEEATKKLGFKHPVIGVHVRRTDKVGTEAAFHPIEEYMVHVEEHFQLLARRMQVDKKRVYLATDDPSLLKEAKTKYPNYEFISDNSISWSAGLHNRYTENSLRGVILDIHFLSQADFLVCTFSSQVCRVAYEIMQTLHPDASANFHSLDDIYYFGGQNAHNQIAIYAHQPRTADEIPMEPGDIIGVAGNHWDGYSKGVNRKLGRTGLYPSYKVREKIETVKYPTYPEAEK

[2] = molecular target: T2, Fucosyltransferase 8 (FUT8) (Homo sapiens, UniProt Q9BYC5); assay: grating-coupled interferometry (GCI) with immobilized FUT8; supported by thermal shift of FUT8-Flag from SW480 cells (Tm +[…] °C at […]); format: binding
T2 sequence (Q9BYC5 31-575): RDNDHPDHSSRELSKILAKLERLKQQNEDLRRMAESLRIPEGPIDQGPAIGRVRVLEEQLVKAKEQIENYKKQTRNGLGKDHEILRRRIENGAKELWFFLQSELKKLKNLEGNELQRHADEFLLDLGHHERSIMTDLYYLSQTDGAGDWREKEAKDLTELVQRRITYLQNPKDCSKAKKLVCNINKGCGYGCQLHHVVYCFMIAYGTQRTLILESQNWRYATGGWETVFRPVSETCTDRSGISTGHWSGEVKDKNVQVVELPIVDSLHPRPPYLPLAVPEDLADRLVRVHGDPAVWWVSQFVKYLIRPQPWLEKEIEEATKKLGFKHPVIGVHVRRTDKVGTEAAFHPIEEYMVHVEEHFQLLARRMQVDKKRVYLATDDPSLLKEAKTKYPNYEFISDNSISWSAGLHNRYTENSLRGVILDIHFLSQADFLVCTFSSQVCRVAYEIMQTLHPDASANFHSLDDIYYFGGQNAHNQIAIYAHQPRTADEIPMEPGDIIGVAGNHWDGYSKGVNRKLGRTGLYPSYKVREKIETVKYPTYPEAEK

Compound | streptavidin pulldown from SW480 lysate with 0.2 mM probe, western blot and LC-M [1] | Kd [2] [µM]
CCc1ccc(CNc2nc3nc(CN(Cc4ccccc4)C(=O)CCOCCOCCOCCOCCOCCOCCNC(=O)CCCC[C@@H]4SC[C@@H]5NC(=O)N[C@@H]54)cc(O)n3n2)cc1 [FDW028-PEG6-biotin] | much more FUT8-Flag was pulled down by FDW028-PEG6-biotin than the control | 
CCc1ccc(CNc2nc3nc(CNCc4ccccc4)cc(O)n3n2)cc1 [D2-1c, FDW028] |  | 5.49
